Assay results taken from ChEMBL document CHEMBL5576130, “Non-Covalent Inhibitors of SARS-CoV-2 Papain-Like Protease (PLpro): In Vitro and In Vivo Antiviral Activity” (J Med Chem, 2024).
Active and inactive are the calls of the source. The rule behind the calls is not given here.

Legend:
SARS-CoV-2 [1] = test: Antiviral activity against SARS-CoV-2 USA-WA1/2020 infected in African green monkey Vero cells assessed as reduction in viral growth at 10 uM measured after 2 days by plaque assay; type: functional, organism-based; conditions: Severe acute respiratory syndrome coronavirus 2, time 2.0 day
SARS-CoV-2 [2] = test: Antiviral activity against SARS-CoV-2 USA-WA1/2020 infected in African green monkey Vero cells assessed as reduction in viral growth at 2 to 20 uM measured after 2 days by plaque assay; type: functional, organism-based; conditions: Severe acute respiratory syndrome coronavirus 2, dose 2-20 µM, time 2.0 day
[3] = Plasma protein binding in human; type: ADME, cell-free
SARS-CoV-2 [4] = test: Antiviral activity against SARS-CoV-2 USA-WA1/2020 infected in African green monkey Vero E6 cells […] for 1 hrs followed by viral infection and measured after 48 hrs; type: functional, organism-based; conditions: Severe acute respiratory syndrome coronavirus 2, USA-WA1/2020, Vero C1008
SARS-CoV-2 [5] = test: Antiviral activity against SARS CoV-2; type: functional, organism-based; conditions: Severe acute respiratory syndrome coronavirus 2

## Cc1ccc(NC2CNC2)cc1C(=O)N[C@H](C)c1cccc(-c2ccc(CN[C@H]3CC[C@@H](O)C3)s2)c1 (single isomer, unassigned)
SARS-CoV-2 [1]
  Activity: inactive

## Cc1ccc(OCCN)cc1C(=O)N[C@H](C)c1cccc(-c2ccc(CN3CCCC3)s2)c1
SARS-CoV-2 [2]
  Activity: inactive

## Cc1ccc(NC2CNC2)cc1C(=O)N[C@H](C)c1cccc(-c2ccc(CNC(=O)C3CCCC3)s2)c1
SARS-CoV-2 [2]
  Activity: inactive

## CC(=O)N1CCN(c2ccc(OCC3COC(Cn4ccnc4)(c4ccc(Cl)cc4Cl)O3)cc2)CC1 (stereo not drawn) [KETOCONAZOLE]
[3]
  PPB: 99.3%

## COC(=O)/C=C/C(=O)NNC(=O)CCc1ccccc1C(=O)N[C@H](C)c1cccc2ccccc12
SARS-CoV-2 [4]
  EC50: 0.26 µM

## Cc1ccc(OC2CNC2)cc1C(=O)N[C@H](C)c1cccc(-c2ccc(CN3CCCC3)s2)c1
SARS-CoV-2 [2]
  Activity: Active

## Cc1ccc(NC2CNC2)cc1C(=O)N[C@H](C)c1cccc(-c2ccc(CN3CCCC3)s2)c1
SARS-CoV-2 [2]
  Activity: Active

## Nc1ccc2cc3ccc(N)cc3nc2c1 [PROFLAVINE]
SARS-CoV-2 [5]
  EC50: 64 µM
